Source: patent US8299301B2 (priority 2007, dated 2012)
Like-named read-outs stand apart in the source and are kept apart here.

What was measured:
Puccinia recondite = experiment: Puccinia test (wheat) / protective; assay type: in vivo; details: 240 h, read-out: efficacy
Method: Puccinia Test (Wheat)/Protective
(§1) To produce a suitable preparation of active compound, 1 part by weight of active compound is mixed with the stated amounts of solvent and emulsifier, and the concentrate is diluted with water to the desired concentration.
To test for protective activity, young plants are sprayed with the active compound preparation at the stated application rate. After the spray coating has dried on, the plants are sprayed with a conidia suspension of Puccinia recondite. The plants remain in an incubation cabin at 20° C. and 100% relative atmospheric humidity for 48 hours. The plants are then placed in a greenhouse at a temperature of about 20° C. and a relative atmospheric humidity of 80% to promote the development of rust pustules.
Evaluation is carried out 10 days after the inoculation. 0% means an efficacy which corresponds to that of the control, whereas an efficacy of 100% means that no infection is observed.

[1] = system: Erysiphe graminis f.sp. hordei; experiment: Erysiphe test (barley) / protective; assay type: in vivo; details: Blumeria graminis, 168 h, read-out: efficacy
Method: Erysiphe Test (Barley)/Protective
as §1
To test for protective activity, young plants are sprayed with the active compound preparation at the stated application rate. After the spray coating has dried on, the plants are dusted with spores of Erysiphe graminis f.sp. hordei. The plants are placed in a greenhouse at a temperature of about 20° C. and a relative atmospheric humidity of about 80% to promote the development of mildew pustules.
Evaluation is carried out 7 days after the inoculation. 0% means an efficacy which corresponds to that of the control, whereas an efficacy of 100% means that no infection is observed.

Sphaerotheca fuliginea = experiment: Sphaerotheca test (cucumber) / protective; assay type: in vivo; details: Podosphaera fuliginea, 168 h, read-out: efficacy
Method: Sphaerotheca Test (Cucumber)/Protective [table] To produce a suitable preparation of active compound, 1 part by weight of active compound is mixed with the stated amounts of solvent and emulsifier, and the concentrate is diluted with water to the desired concentration. To test for protective activity, young cucumber plants are sprayed with the active compound preparation at the stated application rate. 1 day after the treatment, the plants are inoculated with a spore suspension of Sphaerotheca fuliginea.

[2] = pH 2.3
[3] = wheat, protective, active compound concentration 1000 ppm, evaluation 10 days after inoculation
[4] = barley, protective, active compound concentration 1000 ppm, evaluation 7 days after inoculation
[5] = cucumber, protective, active compound concentration 500 ppm, evaluation 7 days after inoculation

Compound: CCN(C)C=Nc1cc(C(F)(F)F)c(-c2ccc(C(C)(C)C)cc2)cc1C [Compound 12]
- logP (logP determination; logP acid, acid): 2.74
- logP (logP determination; logP neutral, neutral): 6.15
- pest or weed control at 1000 ppm (Puccinia recondite): ≥ 70%
- pest or weed control at 1000 ppm [1]: ≥ 70%
- pest or weed control at 500 ppm (Sphaerotheca fuliginea): ≥ 70%

Compound: CCN(C)C=Nc1cc(C(F)(F)F)c(Oc2cccc(C(C)C)c2)cc1C [Compound 4, N-ethyl-N-methyl-N′-[4-(3-iso-propylphenoxy)-5-trifluoromethyl-2-methylphenyl]formamidine]
- logP (logP determination; logP acid, acid): 2.65
- logP (logP determination; logP neutral, neutral): 5.74
- pest or weed control at 1000 ppm (Puccinia recondite): ≥ 70%
- pest or weed control at 1000 ppm [1]: ≥ 70%
- pest or weed control at 500 ppm (Sphaerotheca fuliginea): ≥ 70%

Compound: Cc1cc(Oc2cccc(C(C)(C)C)c2)c(C(F)(F)F)cc1N [4-(3-tertButylphenoxy)-5-trifluoromethyl-2-methylaniline]
- logP (logP determination; pH 2.3, log P (pH2.3), pH 2.3): 4.67

Compound: CCN(C)C=Nc1cc(C(F)F)c(Oc2ccc(Cl)c(C(C)C)c2)cc1C [Compound 17, N-ethyl-N-methyl-N′-[4-(3-isopropyl-4-chlorophenoxy)-5-difluoromethyl-2-methylphenyl]formamidine]
- logP (logP determination; logP acid, acid): 2.97

Compound: CCN(C)C=Nc1cc(CF)c(-c2ccc(C(C)(C)C)cc2)cc1C [Compound 2, N-ethyl-N-methyl-N′-[4-(4-tert-butylphenyl)-5-fluoromethyl-2-methylphenyl]formamidine]
- logP (logP determination; logP acid, acid): 2.67
- pest or weed control at 1000 ppm (Puccinia recondite; [3]): ≥ 70%
- pest or weed control at 1000 ppm [1, 4]: ≥ 70%

Compound: Cc1cc(Oc2cccc(C(C)C)c2)c(C(F)F)cc1N=CN1CCCCC1 [Compound 14, N-piperidinyl-N'-[4-(3-iso-propylphenoxy)-5-difluoromethyl-2-methylphenyl]formamidine]
- logP acid (logP determination; acid): 2.60

Compound: 4-(3-tertButylphenoxy)-5-trifluoromethyl-2-methylnitrobenzene
- log P (pH2.3) [2]: 5.68

Compound: CCN(C)C=Nc1cc(C(F)F)c(Oc2ccc(Cl)c(Cl)c2)cc1C [Compound 10, N-ethyl-N-methyl-N′-[4-(3,4-dichlorophenoxy)-5-difluoromethyl-2-methylphenyl]formamidine]
- logP (logP determination; logP acid, acid): 2.31
- pest or weed control at 1000 ppm (Puccinia recondite): ≥ 70%
- pest or weed control at 1000 ppm [1]: ≥ 70%
- pest or weed control at 500 ppm (Sphaerotheca fuliginea): ≥ 70%

Compound: CCN(C)C=Nc1cc(C(F)(F)F)c(Oc2cccc(C(C)(C)C)c2)cc1C [Compound 11, N-ethyl-N-methyl-N′-[4-(3-tert-butylphenoxy)-5-trifluoromethyl-2-methylphenyl]formamidine]
- logP (logP determination; logP acid, acid): 2.52
- logP (logP determination; logP neutral, neutral): 6.04
- logP (logP determination; pH 2.3, log P (pH2.3), pH 2.3): 2.52

Compound: Cc1c([N+](=O)[O-])ccc(Cl)c1C(F)(F)F [4-Chloro-3-trifluoromethyl-2-methylnitrobenzene]
- log P (HCOOH) (logP determination; HCOOH): 3.60

Compound: CCCN(C)C=Nc1cc(C(F)(F)F)c(Oc2ccc(Cl)c(C(F)(F)F)c2)cc1C [Compound 6, N-propyl-N-methyl-N′-[4-(3-trifluoromethyl-4-chlorophenoxy)-5-trifluoromethyl-2-methylphenyl]formamidine]
- logP (logP determination; logP acid, acid): 3.01
- logP (logP determination; logP neutral, neutral): 6.15
- pest or weed control at 1000 ppm (Puccinia recondite; [3]): ≥ 70%
- pest or weed control at 1000 ppm [1, 4]: ≥ 70%
- pest or weed control at 500 ppm (Sphaerotheca fuliginea; [5]): ≥ 70%

Compound: CCN(C)C=Nc1cc(C(F)F)c(Oc2cccc(C(C)O)c2)cc1C (centres unmarked) [Compound 15, N-ethyl-N-methyl-N′-{4-[3-(1-hydroxyethyl)-phenoxy]-5-difluoromethyl-2-methylphenyl}formamidine]
- logP (logP determination; logP acid, acid): 1.65
- pest or weed control at 500 ppm (Sphaerotheca fuliginea): ≥ 70%

Compound: CCN(C)C=Nc1cc(C(F)(F)F)c(Oc2ccc(Cl)c(C(C)(C)C)c2)cc1C [Compound 3, N-ethyl-N-methyl-N′-[4-(3-tert-butyl-4-chlorophenoxy)-5-trifluoromethyl-2-methylphenyl]formamidine]
- logP (logP determination; logP acid, acid): 3.26
- logP (logP determination; logP neutral, neutral): 6.68
- pest or weed control at 1000 ppm (Puccinia recondite; [3]): ≥ 70%
- pest or weed control at 1000 ppm [1, 4]: ≥ 70%
- pest or weed control at 500 ppm (Sphaerotheca fuliginea; [5]): ≥ 70%

Compound: CCN(C)C=Nc1cc(C(F)F)c(Oc2ccc(Cl)c(C(C)(C)C)c2)cc1C [Compound 9, N-ethyl-N-methyl-N′-[4-(3-tert-butyl-4-chlorophenoxy)-5-difluoromethyl-2-methylphenyl]formamidine]
- logP (logP determination; logP acid, acid): 2.82
- pest or weed control at 1000 ppm (Puccinia recondite; [3]): ≥ 70%
- pest or weed control at 1000 ppm [1, 4]: ≥ 70%
- pest or weed control at 500 ppm (Sphaerotheca fuliginea; [5]): ≥ 70%

Compound: Cc1cc(Oc2ccc(Cl)c(C(C)(C)C)c2)c(C(F)(F)F)cc1N=CN(C)C [Compound 8, N,N-dimethyl-N′-[4-(3-tert-butyl-4-chlorophenoxy)-5-trifluoromethyl-2-methylphenyl]formamidine]
- logP (logP determination; logP acid, acid): 3.13
- logP (logP determination; logP neutral, neutral): 6.3
- pest or weed control at 1000 ppm (Puccinia recondite; [3]): ≥ 70%
- pest or weed control at 1000 ppm [1, 4]: ≥ 70%
- pest or weed control at 500 ppm (Sphaerotheca fuliginea; [5]): ≥ 70%

Compound: CCN(C)C=Nc1cc(C(F)(F)F)c(Oc2ccc(Cl)c(C(F)(F)F)c2)cc1C [Compound 5, N-ethyl-N-methyl-N′-[4-(3-trifluoromethyl-4-chlorophenoxy)-5-trifluoromethyl-2-methylphenyl]formamidine]
- logP (logP determination; logP acid, acid): 2.81
- logP (logP determination; logP neutral, neutral): 5.77
- pest or weed control at 500 ppm (Sphaerotheca fuliginea; [5]): ≥ 70%

Compound: CCN(C)C=Nc1cc(C(F)F)c(Oc2ccccc2)cc1C [Compound 13, N-ethyl-N-methyl-N′-[4-phenoxy-5-difluoromethyl-2-methylphenyl]formamidine]
- logP (logP determination; logP acid, acid): 1.73
- pest or weed control at 500 ppm (Sphaerotheca fuliginea): ≥ 70%

Compound: CCN(C)C=Nc1cc(C(F)F)c(Oc2cccc(C(C)C)c2)cc1C [Compound 18, N-ethyl-N-methyl-N′-[4-(3-iso-propylphenoxy)-5-difluoromethyl-2-methylphenyl]formamidine]
- logP (logP determination; logP acid, acid): 2.5

Compound: CCN(C)C=Nc1cc(CF)c(Oc2ccc(Cl)c(C(C)(C)C)c2)cc1C [Compound 1, N-ethyl-N-methyl-N′-[4-(3-tert-butyl-4-chlorophenoxy)-5-fluoromethyl-2-methylphenyl]formamidine]
- logP (logP determination; logP acid, acid): 2.93
- pest or weed control at 1000 ppm (Puccinia recondite; [3]): ≥ 70%
- pest or weed control at 1000 ppm [1, 4]: ≥ 70%

Compound: CCN(C)C=Nc1cc(C(F)F)c(Oc2cccc(C(C)F)c2)cc1C (centres unmarked) [Compound 16, N-ethyl-N-methyl-N′-{4-[3-(1-fluoroethyl)-phenoxy]-5-difluoromethyl-2-methylphenyl}formamidine]
- logP (logP determination; logP acid, acid): 2.17
- pest or weed control at 500 ppm (Sphaerotheca fuliginea; [5]): ≥ 70%

Compound: Cc1cc(Oc2ccc(Cl)c(C(F)(F)F)c2)c(C(F)(F)F)cc1N=CN1CCCCC1 [Compound 7, N-piperidinyl-N′-[4-(3-trifluoromethyl-4-chlorophenoxy)-5-trifluoromethyl-2-methylphenyl]formamidine]
- logP acid (logP determination; acid): 2.98
- logP neutral (logP determination; neutral): 6.19
